Columns and labels:
cyclooxygenase = test: Formation of prostaglandin D2 by neutrophils (measure of cyclooxygenase activity), A23187 stimulated, RIA; type: cell-based, Sprague-Dawley rats; settings: rat peritoneal neutrophils (lambda-carageenan), 5 min preincubation at 37° C., A23187 2 μmol/l, read-out: IC50 PGD2
Method: (§1) The formation of prostaglandin D2 by neutrophils was used as a measure of the cyclooxygenase activity, and the formation of leucotrien B4 as a measure of the 5-lipoxygenase activity.
(§2) Male Sprague-Dawley rats (250-300 g) received 1 mg of lambda-carageenan (dissolved in 0.5 ml of distilled water) injected intraperitoneally.
(§3) After 16 hours, the rats were sacrificed by exposure to diethyl ether. 15 ml of Hanks balanced salt solution (HBSS) were injected i.p., the neutrophils were harvested by aspiration (10 ml) and were centrifuged (5 min, 100 g, 4° C.), the supernatant solution was decanted, and the cells were resuspended in HBSS at 4° C. to a concentration of 5×10^6 cells/ml.
(§4) 400 μl of cell suspension (2×10^6 cells), […] of compound dissolved in DMSO and 49.5 μl of HBSS were incubated at 37° C. for 5 min. Then 50 μl of A23187 (2 μmol/1 final concentration) were added and subsequently the mixture was again incubated at 37° C. for 5 min.
(§5) The reaction was stopped by centrifugation at 10,000 g for 3 s, and the supernatant liquid was transferred into precooled plastic tubes and left in an ice bath for a maximum of 1 h before starting the radioimmunoassay measurement.
(§6) PGD2 and LTB4 were measured after dilution with HBSS using commercial RIA kits.
(§7) The comparison substance was 6-chloro-2-methyl-N-(2-pyridyl)-2H-thieno[2,3-e]-1,2-thiazine-3-carboxamide 1,1-dioxide ("LORNOXICAM", Compound A).

5-lipoxygenase = molecular target: T1, 5-lipoxygenase (Rattus norvegicus, UniProt P12527); test: Formation of leucotrien B4 by neutrophils (measure of 5-lipoxygenase activity), A23187 stimulated, RIA; type: cell-based, Sprague-Dawley rats; settings: rat peritoneal neutrophils (lambda-carageenan), 5 min preincubation at 37° C., A23187 2 μmol/l, read-out: IC50 LTB4
T1 construct: endogenous in cells; host or cells: peritoneal neutrophils of male Sprague-Dawley rats, elicited by i.p. carrageenan (16 h)
T1 sequence (P12527 1-673): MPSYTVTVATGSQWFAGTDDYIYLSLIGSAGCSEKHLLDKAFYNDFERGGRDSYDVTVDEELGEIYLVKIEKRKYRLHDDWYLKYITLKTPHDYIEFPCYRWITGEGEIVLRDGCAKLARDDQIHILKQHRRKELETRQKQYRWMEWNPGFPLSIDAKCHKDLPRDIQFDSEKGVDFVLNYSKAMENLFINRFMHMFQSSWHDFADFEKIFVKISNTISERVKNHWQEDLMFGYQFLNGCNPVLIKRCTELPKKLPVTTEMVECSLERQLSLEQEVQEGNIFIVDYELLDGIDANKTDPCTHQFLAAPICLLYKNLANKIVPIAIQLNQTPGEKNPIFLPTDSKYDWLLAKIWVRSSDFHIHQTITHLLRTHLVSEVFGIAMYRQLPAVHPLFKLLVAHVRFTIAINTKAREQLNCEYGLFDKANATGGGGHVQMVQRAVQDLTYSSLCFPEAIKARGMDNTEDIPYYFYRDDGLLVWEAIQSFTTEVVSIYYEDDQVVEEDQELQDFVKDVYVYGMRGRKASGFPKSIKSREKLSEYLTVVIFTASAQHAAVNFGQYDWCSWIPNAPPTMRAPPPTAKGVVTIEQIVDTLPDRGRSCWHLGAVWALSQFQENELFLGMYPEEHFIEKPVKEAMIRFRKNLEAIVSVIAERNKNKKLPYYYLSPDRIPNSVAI
Method: as §1, §2, §3, §4, §5, §6, §7

Compound: CN1C(C(=O)Nc2nccs2)=C(O)c2sc(Cl)cc2S1(=O)=O [Compound 1, 6-Chloro-4-hydroxy-2-methyl-N-(2-thiazolyl)-2H-thieno[2,3-e]-1,2-thiazine-3-carboxamide 1,1-dioxide]
- IC50 (cyclooxygenase): 17 nM
- IC50 (5-lipoxygenase): > 10000 nM

Compound: CN1C(C(=O)Nc2nc(-c3ccccc3)cs2)=C(O)c2sc(Cl)cc2S1(=O)=O [Compound 2, 6-Chloro-4-hydroxy-2-methyl-N-(4phenyl-2-thiazolyl)-2H-thieno[2,3-e]-1,2-thiazine-3-carboxamide 1,1-dioxide]
- IC50 (cyclooxygenase): 27 nM
- IC50 (5-lipoxygenase): > 10000 nM

Compound: CN1C(C(=O)Nc2nc(-c3ccccc3)cs2)=C(O)c2sc(-c3ccco3)cc2S1(=O)=O [Compound 3, 6-(2-Furyl)-4-hydroxy-2-methyl-N-(4-phenyl-2thiazolyl)-2H-thieno[2,3-e]-1,2-thiazine-3-carboxamide 1,1-dioxide]
- IC50 (cyclooxygenase): 17 nM
- IC50 (5-lipoxygenase): 5200 nM

Compound: CN1C(C(=O)Nc2nc(-c3ccc(Oc4ccc(F)cc4)o3)cs2)=C(O)c2sc(Cl)cc2S1(=O)=O [Compound 4, 6-Chloro-N-{4-[5-(4-fluorophenoxy)-2-furanyl]-2-thiazolyl}-4-hydroxy-2-methyl-2H-thieno[2,3-e]-1,2-thiazine-3-carboxamide 1,1-dioxide]
- IC50 (cyclooxygenase): 3400 nM
- IC50 (5-lipoxygenase): 470 nM

Compound: CN1C(C(=O)Nc2nc(-c3ccc(Oc4ccc(F)cc4)o3)cs2)=C(O)c2sc(-c3ccco3)cc2S1(=O)=O [Compound 5, N-{4[5-(4-Fluorophenoxy)-2-furanyl]-2-thiazolyl}-6-(2-furanyl)-4-hydroxy-2-methyl-2H-thieno[2,3-]-1,2-thiazine-3-carboxamide 1,1-dioxide]
- IC50 (cyclooxygenase): 270 nM
- IC50 (5-lipoxygenase): 660 nM

Compound: CN1C(C(=O)Nc2nc(-c3ccc(-c4ccc(F)cc4)o3)cs2)=C(O)c2sc(Cl)cc2S1(=O)=O [Compound 6, 6-Chloro-N-{4-[5-(4-fluorophenyl)-2-furanyl]-2-thiazolyl}-4-hydroxy-2-methyl-2H-thieno[2,3-e]-1,2-thiazine-3-carboxamide 1,1-dioxide]
- IC50 (cyclooxygenase): 3600 nM
- IC50 (5-lipoxygenase): 580 nM

Compound: CN1C(C(=O)Nc2nc(-c3ccc(-c4ccc(F)cc4)o3)cs2)=C(O)c2sc(-c3ccco3)cc2S1(=O)=O [Compound 7, N-{4-[5-(4-Fluorophenyl)-2-furanyl]-2-thiazolyl}-6-(2-furanyl)-4-hydroxy-2-methyl-2H-thieno[2,3-e]-1,2-thiazine-3-carboxmide 1,1-dioxide]
- IC50 (cyclooxygenase): 1600 nM
- IC50 (5-lipoxygenase): 730 nM

Compound: CN1C(C(=O)Nc2nc(-c3cc4ccccc4o3)cs2)=C(O)c2sc(Cl)cc2S1(=O)=O [Compound 8, N-[4-(2-Benzo[b]furanyl)-2-thiazolyl]-6-chloro-4-hydroxy-2-methyl-2H-thieno[2,3-e]-1,2-thiazine-3-carboxamide 1,1-dioxide]
- IC50 (cyclooxygenase): 100 nM
- IC50 (5-lipoxygenase): 2200 nM

Compound: CN1C(C(=O)Nc2nc(-c3cc4ccccc4o3)cs2)=C(O)c2sc(-c3ccco3)cc2S1(=O)=O [Compound 9, N-[4-(2-Benzo[b]furanyl)-2-thiazolyl]-6-(2-furanyl)-4-hydroxy-2-methyl-2H-thieno[2,3-e]-1,2-thiazine-3-carboxamide 1,1-dioxide]
- IC50 (cyclooxygenase): 39 nM
- IC50 (5-lipoxygenase): 1600 nM

Compound: CN1C(C(=O)Nc2nc(-c3cc4ccccc4o3)co2)=C(O)c2sc(-c3ccco3)cc2S1(=O)=O [Compound 11]
- IC50 (cyclooxygenase): 200 nM
- IC50 (5-lipoxygenase): 2100 nM

Compound: CN1C(C(=O)Nc2nc(-c3cc4ccccc4s3)co2)=C(O)c2sc(Cl)cc2S1(=O)=O [Compound 12, N-[4-(2-Benzo[b]thienyl)-2-oxazolyl]-6-chloro-4-hydroxy-2-methyl-2H-thieno[2,3e]-thiazine-3-carboxamide 1,1-dioxide]
- IC50 (cyclooxygenase): 190 nM
- IC50 (5-lipoxygenase): 2700 nM

Compound: CN1C(C(=O)Nc2ccccn2)=C(O)c2sc(-c3ccccc3)cc2S1(=O)=O [Compound 14, 4-Hydroxy-2-methyl-6-phenyl-N-(2-pyridinyl)-2H-thieno-[2,3-e]-1,2-thiazine-3-carboxamide 1,1-dioxide]
- IC50 (cyclooxygenase): 38 nM
- IC50 (5-lipoxygenase): > 10000 nM

Compound: CN1C(C(=O)Nc2ccccn2)=C(O)c2sc(-c3cccs3)cc2S1(=O)=O [Compound 15, 4-Hydroxy-2-methyl-N-(2-pyridinyl)-6-(2-thienyl)-2H-thieno[2,3-e]-1,2-thiazine-3-carboxamide 1,1-dioxide]
- IC50 (cyclooxygenase): 3.5 nM
- IC50 (5-lipoxygenase): > 10000 nM

Compound: CN1C(C(=O)Nc2ccccn2)=C(O)c2sc(-c3ccco3)cc2S1(=O)=O [Compound 16, 6-(2-Furyl)-4-hydroxy-2-methyl-N-(2-pyridinyl)-2H-thieno[2,3-e]-1,2-thiazine-3-carboxamide 1,1-dioxide]
- IC50 (cyclooxygenase): 9.6 nM
- IC50 (5-lipoxygenase): > 10000 nM

Compound: CN1C(C(=O)Nc2cccc(-c3cc4ccccc4o3)n2)=C(O)c2sc(-c3ccccc3)cc2S1(=O)=O [Compound 17, N-[6-(2-Benzo[b]furyl)-2-pyridinyl]-4-hydroxy-2-methyl-6-phenyl-2H-thieno[2,3-e]-1,2-thiazine-3-carboxamide 1,1-dioxide]
- IC50 (cyclooxygenase): 190 nM
- IC50 (5-lipoxygenase): 1300 nM

Compound: CN1C(C(=O)Nc2cccc(-c3cc4ccccc4o3)n2)=C(O)c2sc(-c3cccs3)cc2S1(=O)=O [Compound 18, N-[6-(2-Benzo[b]furyl)-2-pyridinyl]-4-hydroxy-2-methyl-6-(2-thienyl)-2H-thieno[2,3-e]-1,2-thiazine-3-carboxamide 1,1-dioxide]
- IC50 (cyclooxygenase): 68 nM
- IC50 (5-lipoxygenase): 1300 nM

Compound: CN1C(C(=O)Nc2cccc(-c3cc4ccccc4o3)n2)=C(O)c2sc(-c3ccco3)cc2S1(=O)=O [Compound 19, N-[6-(2-Benzo[b]furyl)-2-pyridinyl]-6-(2-furyl)-4-hydroxy-2-methyl-2H-thieno[2,3e]-1,2-thiazine-3-carboxamide 1,1-dioxide]
- IC50 (cyclooxygenase): 39 nM
- IC50 (5-lipoxygenase): 1400 nM

Compound: CN1C(C(=O)Nc2ccccn2)=C(O)c2sc(Cl)cc2S1(=O)=O [Compound A, reference compound]
- IC50 (cyclooxygenase): 20 nM
- IC50 (5-lipoxygenase): > 10000 nM
